Values after ≈ are worked out from the molar mass of the structure shown.
Legend:
[1] = Aqueous solubility determination (Millipore Multiscreen solubility filter plate, UV/vis); assay type: physicochemical; conditions: kinetic from dmso stock; Universal Aqueous Buffer pH 7.4, 90 minutes at room temperature
Method: Aqueous Solubility Determination. The following procedure was used to obtain the aqueous solubility results summarized in Example 4. Step 1. Determination of optimal UV/vis wavelengths and generation of standard curves for a compound of interest: • (1) For eight standard calibration curves (one plate), prepare 34 mL of 50:50 (v:v) universal buffer:acetonitrile in a 50 mL tube. • (2) Using a multichannel pipet, dispense (in μL) the buffer:acetonitrile in a deep well plate as follows:
• (3) Using a multichannel pipet, dispense DMSO into the same plate as follows:
• (4) Add 10 mM compound in DMSO into the plates as follows:
• (5) Mix columns 1 and 2 by pipetting each up and down 10 times. Mix columns 3 and 4 by pipetting up and down 10 times. Serially dilute as follows (pipet up and down 10 times after each transfer):
• (6) Cover plate with lid and shake (200-300 rpm) at room temperature for 20 minutes. • (7) Mix all wells by pipetting up and down 10 times. • (8) Transfer 120 μL from each well to a UV transparent plate. Cover and shake for 3-5 minutes. Remove any bubbles in the wells using a pipet. • (9) Read from 220 nm to 500 nm at 10 nm increments on a spectrophotometer (e.g., SpectraMax®).
Step 2. Compound Solubility Testing Procedures using the Millipore™ Multiscreen® Solubility Filter Plate. […]
Solubility Protocol: • (a) Add 285 μL of Universal Aqueous Buffer to desired wells of the Millipore™ Multiscreen® Solubility filter plate. • (b) Add 15 μL of 10 mM compound in DMSO to the appropriate wells. […] Remove any bubbles with a pipet. • (i) Measure the absorbance of each well in the plate on the spectrophotometer (UV/vis) at the desired wavelength. For compounds in a plate with different absorbance peaks, set the spectrophotometer to read a spectrum (e.g., from 220 nm to 460 nm). • (j) Identify concentration using measured absorbance for each compound and the predetermined standard curve (see Step 1).

[2] = test system: IFNγ-induced NO production in RAW264.7 macrophages; assay: Suppression of IFNγ-induced NO production (Griess reagent); assay type: cell-based, mouse; conditions: Mus musculus; RAW264.7, 20 ng/ml IFNγ for 24 hours, 2 hours pre-treatment
Method: (§1) FIGS. 1-11 and 22. Inhibition of NO Production. RAW264.7 macrophages were pre-treated with DMSO or drugs at various concentrations (nM) for 2 hours, then treated with 20 ng/ml IFNγ for 24 hours. NO concentration in media was determined using a Griess reagent system; cell viability was determined using WST-1 reagent. Nitric Oxide production and cell viability. RAW264.7 macrophages were pre-treated with DMSO or drugs for 2 hours, then treated with recombinant mouse IFNγ (Sigma) for 24 hours. NO concentration in media was determined using the Griess reagent system (Promega). Cell viability was determined using WST-1 reagent (Roche).

RAW264.7 macrophages = assay: Cell viability (WST-1 reagent); assay type: cell-based, mouse; conditions: Mus musculus, RAW264.7, 20 ng/ml IFNγ
Method: as §1

solubility at 90 min [1] | IC50 [2] | SMILES | IC50 (RAW264.7 macrophages)
164 µM (≈ 75.7 µg/mL) | – | CC1(C)CC[C@]2(N)CC[C@]3(C)[C@H](C(=O)C=C4[C@@]5(C)C=C(C#N)C(=O)C(C)(C)[C@@H]5CC[C@]43C)[C@@H]2C1 [Compound 63198] | –
0.06 µM (≈ 0.0344 µg/mL) | – | CC1(C)CC[C@]2(C(=O)NCC(F)(F)F)CC[C@]3(C)[C@H](C(=O)C=C4[C@@]5(C)C=C(C#N)C(=O)C(C)(C)[C@@H]5CC[C@]43C)[C@@H]2C1 [Compound 63102, reference compound] | –
– | ~0.003 µM | CC1(C)CC[C@]2(C(=O)F)CC[C@]3(C)[C@H](C(=O)C=C4[C@@]5(C)C=C(C#N)C(=O)C(C)(C)[C@@H]5CC[C@]43C)[C@@H]2C1 [Compound 402-55, (4aS,6aR,6bS,8aR,12aS,14aR,14bS)-11-cyano-2,2,6a,6b,9,9,12a-heptamethyl-10,14-dioxo-1,2,3,4,4a,5,6,6a,6b,7,8,8a,9,10,12a,14,14a,14b-octadecahydropicene-4a-carbonyl fluoride] | 0.1 µM
13.6 µM (≈ 6.89 µg/mL) | – | COC(=O)[C@]12CCC(C)(C)C[C@H]1[C@H]1C(=O)C[C@@H]3[C@@]4(C)C=C(C#N)C(=O)C(C)(C)[C@@H]4CC[C@@]3(C)[C@]1(C)CC2 [Compound 63219] | –
– | ~0.0032 µM | COC(=O)[C@]12CCC(C)(C)C[C@H]1[C@H]1C(=O)C=C3[C@@]4(C)C=C(C#N)C(=O)[C@](C)(CO)[C@@H]4CC[C@@]3(C)[C@]1(C)CC2 [Compound 63301, (4aS,6aR,6bS,8aR,9S,12aS,14aR,14b5)-methyl 11-cyano-9-(hydroxymethyl)-2,2,6a,6b,9,12a-hexamethyl-10,14-dioxo-1,2,3,4,4a,5,6,6a,6b,7,8,8a,9,10,12a,14,14a,14b-octadecahydropicene-4a-carboxylate] | ~0.12 µM
– | > 0.2 µM | COC(=O)[C@]12CCC(C)(C)C[C@H]1[C@H]1C(=O)C=C3[C@@]4(C)C=C(c5nnn[nH]5)C(=O)C(C)(C)[C@@H]4CC[C@@]3(C)[C@]1(C)CC2 [Compound 402-06, (4aS,6aR,6bS,8aR,12aS,14aR,14bS)-methyl-2,2,6a,6b,9,9,12a-heptamethyl-10,14-dioxo-11-(1H-tetrazol-5-yl)-1,2,3,4,4a,5,6,6a,6b,7,8,8a,9,10,12a,14,14a,14b-octadecahydropicene-4a-carboxylate] | > 0.2 µM

Reference: patent US20120238767A1, “ANTIOXIDANT INFLAMMATION MODULATORS: NOVEL DERIVATIVES OF OLEANOLIC ACID” (priority 2008, published 2012)
